Data reported in paper PMC5513037, “Examining the influence of specificity ligands and ATP-competitive ligands on the overall effectiveness of bivalent kinase inhibitors” (Proteome Science, 2017).

How the values were obtained:
Experiment in all cases: KAM-matrix competition in K562 lysate;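 on 0.001 uM KAM: median log10 fold change of treatment over DMSO control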;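 on 0.01 uM KAM: median log10 fold change of treatment over DMSO control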;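 on 0.1 uM KAM: median log10 fold change of treatment over DMSO control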;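 on 1 uM KAM: median log10 fold change of treatment over DMSO control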;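 on 10 uM KAM: median log10 fold change of treatment over DMSO control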
Type in all cases: binding
HUNK = molecular target: T1, HUNK (Homo sapiens, UniProt P57058);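 on 0.001 uM KAM: median log10 fold change of treatment over DMSO control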;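 on 0.01 uM KAM: median log10 fold change of treatment over DMSO control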;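 on 0.1 uM KAM: median log10 fold change of treatment over DMSO control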;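 on 1 uM KAM: median log10 fold change of treatment over DMSO control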;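 on 10 uM KAM: median log10 fold change of treatment over DMSO control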
T1 construct: endogenous in cells; host or cells: K562
T1 sequence (P57058 1-714): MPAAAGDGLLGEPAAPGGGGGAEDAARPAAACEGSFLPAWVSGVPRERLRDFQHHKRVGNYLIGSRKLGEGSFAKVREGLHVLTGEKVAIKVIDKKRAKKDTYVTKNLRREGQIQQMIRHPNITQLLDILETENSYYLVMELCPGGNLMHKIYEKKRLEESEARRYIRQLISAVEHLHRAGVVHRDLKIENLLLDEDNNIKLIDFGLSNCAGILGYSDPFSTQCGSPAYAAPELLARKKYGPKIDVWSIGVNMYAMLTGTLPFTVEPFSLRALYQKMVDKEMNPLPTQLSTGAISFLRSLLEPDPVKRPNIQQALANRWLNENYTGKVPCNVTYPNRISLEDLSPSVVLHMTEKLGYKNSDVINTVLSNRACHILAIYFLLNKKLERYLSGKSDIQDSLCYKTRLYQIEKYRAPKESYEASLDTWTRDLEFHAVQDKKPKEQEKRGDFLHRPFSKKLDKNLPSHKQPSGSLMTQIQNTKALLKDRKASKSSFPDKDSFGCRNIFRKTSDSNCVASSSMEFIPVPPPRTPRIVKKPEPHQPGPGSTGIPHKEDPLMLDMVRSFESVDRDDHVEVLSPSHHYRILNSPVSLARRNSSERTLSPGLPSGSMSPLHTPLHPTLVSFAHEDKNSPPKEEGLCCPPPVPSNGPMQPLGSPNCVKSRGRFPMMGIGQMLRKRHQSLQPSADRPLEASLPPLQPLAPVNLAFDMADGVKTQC
Protocol: (§1) Supplement 12953_2017_125_MOESM1_ESM.zip/MS_Supp Info.xlsx, sheet "KAM" | column: 10 uM KAM; 1 uM KAM; 0.1 uM KAM; 0.01 uM KAM; 0.001 uM KAM; RB50

LATS1 = molecular target: T2, LATS1 (Homo sapiens, UniProt O95835)
T2 construct: endogenous in cells; host or cells: K562
T2 sequence (O95835 1-1130): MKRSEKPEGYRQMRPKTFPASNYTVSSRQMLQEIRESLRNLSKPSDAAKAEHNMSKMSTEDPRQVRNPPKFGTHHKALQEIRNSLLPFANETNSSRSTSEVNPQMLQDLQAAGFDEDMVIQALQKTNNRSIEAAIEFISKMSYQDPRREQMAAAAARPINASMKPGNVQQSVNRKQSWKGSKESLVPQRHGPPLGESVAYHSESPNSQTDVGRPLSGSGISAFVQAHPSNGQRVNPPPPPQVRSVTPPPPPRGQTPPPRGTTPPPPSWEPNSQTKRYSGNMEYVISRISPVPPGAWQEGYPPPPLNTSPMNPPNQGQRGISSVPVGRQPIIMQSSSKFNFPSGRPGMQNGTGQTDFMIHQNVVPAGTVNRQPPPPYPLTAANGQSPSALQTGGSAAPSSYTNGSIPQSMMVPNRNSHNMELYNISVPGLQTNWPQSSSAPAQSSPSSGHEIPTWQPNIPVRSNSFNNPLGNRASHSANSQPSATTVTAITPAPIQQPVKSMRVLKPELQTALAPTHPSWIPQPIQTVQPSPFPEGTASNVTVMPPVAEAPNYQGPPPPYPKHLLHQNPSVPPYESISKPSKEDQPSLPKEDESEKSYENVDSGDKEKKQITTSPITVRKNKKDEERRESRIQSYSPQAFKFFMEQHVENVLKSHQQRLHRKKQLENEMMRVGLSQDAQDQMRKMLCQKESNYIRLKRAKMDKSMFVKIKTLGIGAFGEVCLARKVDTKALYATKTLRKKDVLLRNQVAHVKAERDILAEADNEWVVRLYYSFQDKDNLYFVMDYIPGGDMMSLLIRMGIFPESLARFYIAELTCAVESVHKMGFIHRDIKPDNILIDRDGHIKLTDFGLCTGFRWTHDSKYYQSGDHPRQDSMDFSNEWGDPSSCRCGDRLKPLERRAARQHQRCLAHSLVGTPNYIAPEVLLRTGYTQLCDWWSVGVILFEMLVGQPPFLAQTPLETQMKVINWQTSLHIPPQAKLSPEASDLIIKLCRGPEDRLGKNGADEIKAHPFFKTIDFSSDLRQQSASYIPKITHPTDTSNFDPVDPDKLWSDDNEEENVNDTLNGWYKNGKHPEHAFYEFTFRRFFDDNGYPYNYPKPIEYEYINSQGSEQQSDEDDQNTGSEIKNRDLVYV
Protocol: as §1

MAST4 = molecular target: T3, MAST4 (Homo sapiens, UniProt O15021)
T3 construct: endogenous in cells; host or cells: K562
Protocol: as §1

ULK3 = molecular target: T4, ULK3 (Homo sapiens, UniProt Q6PHR2)
T4 construct: endogenous in cells; host or cells: K562 cell lysate
T4 sequence (Q6PHR2 1-472): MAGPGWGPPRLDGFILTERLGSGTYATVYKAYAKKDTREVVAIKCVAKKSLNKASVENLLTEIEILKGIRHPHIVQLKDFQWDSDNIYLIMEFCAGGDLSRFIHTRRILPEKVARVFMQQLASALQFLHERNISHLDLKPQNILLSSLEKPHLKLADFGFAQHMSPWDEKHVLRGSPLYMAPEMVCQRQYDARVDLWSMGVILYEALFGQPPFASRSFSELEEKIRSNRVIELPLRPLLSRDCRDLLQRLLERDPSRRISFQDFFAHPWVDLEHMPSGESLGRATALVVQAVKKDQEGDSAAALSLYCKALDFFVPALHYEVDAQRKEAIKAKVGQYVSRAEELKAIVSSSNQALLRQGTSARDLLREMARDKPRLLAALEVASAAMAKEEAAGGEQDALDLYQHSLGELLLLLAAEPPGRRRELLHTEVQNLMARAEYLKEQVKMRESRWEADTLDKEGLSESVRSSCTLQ
Protocol: as §1

[1] = read-out: RB50 (the source's name)

T3 sequence (O15021 whole entry): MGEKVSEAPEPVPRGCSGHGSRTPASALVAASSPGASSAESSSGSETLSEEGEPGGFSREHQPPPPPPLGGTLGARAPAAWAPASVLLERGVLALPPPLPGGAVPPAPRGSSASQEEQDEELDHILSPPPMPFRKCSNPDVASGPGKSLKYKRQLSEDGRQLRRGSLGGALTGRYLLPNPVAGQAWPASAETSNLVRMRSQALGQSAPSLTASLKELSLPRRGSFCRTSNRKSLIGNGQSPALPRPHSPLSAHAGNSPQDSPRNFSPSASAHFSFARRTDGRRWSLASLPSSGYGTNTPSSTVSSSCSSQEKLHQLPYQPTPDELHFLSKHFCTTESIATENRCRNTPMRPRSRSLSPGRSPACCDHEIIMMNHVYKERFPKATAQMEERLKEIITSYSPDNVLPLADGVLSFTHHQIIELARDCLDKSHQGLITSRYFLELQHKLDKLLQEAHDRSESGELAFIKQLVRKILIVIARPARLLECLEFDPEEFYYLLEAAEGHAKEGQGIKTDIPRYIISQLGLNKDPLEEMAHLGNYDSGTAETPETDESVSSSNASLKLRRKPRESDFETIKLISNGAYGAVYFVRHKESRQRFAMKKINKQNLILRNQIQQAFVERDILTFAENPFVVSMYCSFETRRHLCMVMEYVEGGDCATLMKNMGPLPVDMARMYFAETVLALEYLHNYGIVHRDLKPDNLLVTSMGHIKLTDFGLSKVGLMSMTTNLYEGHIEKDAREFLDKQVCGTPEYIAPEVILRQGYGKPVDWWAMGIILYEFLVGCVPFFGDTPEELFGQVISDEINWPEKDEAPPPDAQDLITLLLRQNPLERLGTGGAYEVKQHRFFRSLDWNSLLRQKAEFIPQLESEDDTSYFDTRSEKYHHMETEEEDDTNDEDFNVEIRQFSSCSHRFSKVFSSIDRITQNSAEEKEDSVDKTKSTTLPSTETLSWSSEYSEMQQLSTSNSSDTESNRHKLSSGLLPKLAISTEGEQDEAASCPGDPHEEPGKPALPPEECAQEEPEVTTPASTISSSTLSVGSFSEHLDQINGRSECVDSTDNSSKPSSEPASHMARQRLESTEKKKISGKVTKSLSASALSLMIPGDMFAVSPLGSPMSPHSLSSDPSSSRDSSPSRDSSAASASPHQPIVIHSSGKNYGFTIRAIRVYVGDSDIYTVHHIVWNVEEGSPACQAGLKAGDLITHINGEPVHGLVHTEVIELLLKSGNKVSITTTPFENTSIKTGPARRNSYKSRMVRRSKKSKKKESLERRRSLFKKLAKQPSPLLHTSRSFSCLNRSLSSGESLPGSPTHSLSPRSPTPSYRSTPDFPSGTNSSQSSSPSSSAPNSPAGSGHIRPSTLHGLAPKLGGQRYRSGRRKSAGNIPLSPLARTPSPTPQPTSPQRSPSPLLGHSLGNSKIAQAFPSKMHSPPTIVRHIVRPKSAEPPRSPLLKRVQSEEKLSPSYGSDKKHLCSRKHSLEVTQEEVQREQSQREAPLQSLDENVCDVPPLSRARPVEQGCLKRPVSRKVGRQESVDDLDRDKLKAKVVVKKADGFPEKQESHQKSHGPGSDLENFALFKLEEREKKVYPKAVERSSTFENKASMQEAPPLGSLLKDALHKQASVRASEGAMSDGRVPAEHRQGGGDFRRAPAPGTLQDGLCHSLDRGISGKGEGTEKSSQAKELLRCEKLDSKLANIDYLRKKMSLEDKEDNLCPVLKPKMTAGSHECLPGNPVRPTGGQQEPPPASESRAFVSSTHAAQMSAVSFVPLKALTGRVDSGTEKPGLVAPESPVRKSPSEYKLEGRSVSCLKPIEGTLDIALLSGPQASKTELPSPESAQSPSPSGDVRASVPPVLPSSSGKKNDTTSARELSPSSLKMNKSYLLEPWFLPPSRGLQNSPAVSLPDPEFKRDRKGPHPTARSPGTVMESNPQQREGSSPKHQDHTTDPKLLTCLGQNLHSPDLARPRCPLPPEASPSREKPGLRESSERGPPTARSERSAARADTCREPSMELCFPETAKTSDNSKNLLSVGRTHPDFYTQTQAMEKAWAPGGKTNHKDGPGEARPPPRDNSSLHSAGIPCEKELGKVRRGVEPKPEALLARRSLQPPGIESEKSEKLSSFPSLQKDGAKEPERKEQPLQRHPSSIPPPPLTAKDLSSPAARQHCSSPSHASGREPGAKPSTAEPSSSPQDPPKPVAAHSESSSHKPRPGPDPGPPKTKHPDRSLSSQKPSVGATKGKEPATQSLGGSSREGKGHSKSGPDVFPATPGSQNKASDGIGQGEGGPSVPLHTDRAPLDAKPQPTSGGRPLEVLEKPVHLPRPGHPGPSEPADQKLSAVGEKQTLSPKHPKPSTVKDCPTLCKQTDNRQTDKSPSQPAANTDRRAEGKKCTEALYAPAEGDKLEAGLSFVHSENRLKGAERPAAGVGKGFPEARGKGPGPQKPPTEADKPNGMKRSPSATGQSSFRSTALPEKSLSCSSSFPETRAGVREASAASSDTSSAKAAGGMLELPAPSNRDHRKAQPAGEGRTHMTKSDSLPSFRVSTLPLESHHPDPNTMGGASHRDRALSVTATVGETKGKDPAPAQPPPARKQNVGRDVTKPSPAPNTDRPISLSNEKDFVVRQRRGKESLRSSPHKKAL

## N#CCc1ccc(Nc2nc(NCCCN)cc(Nc3cc(C4CC4)[nH]n3)n2)cc1 [KAM]
HUNK; KAM 0.001-10 uM, read-out: RB50 (the source's name)
  IC50: > 10 µM
HUNK; relative to 0 uM KAM = 0
  0.001 uM KAM: 0.08544
  0.01 uM KAM: 0.04291
  0.1 uM KAM: 0.1545
  1 uM KAM: 0.0644
  10 uM KAM: 0.1031
LATS1; 0.001 uM KAM
  median Log10 fold change: -0.01464
LATS1; 0.01 uM KAM
  median Log10 fold change: -0.02487
LATS1; 0.1 uM KAM
  median Log10 fold change: -0.2673
LATS1; 1 uM KAM
  median Log10 fold change: -0.4734
LATS1; 10 uM KAM
  median Log10 fold change: -0.4675
LATS1; [1]
  IC50: 206 nM
MAST4; 0.001 uM KAM
  median Log10 fold change: -0.03696
MAST4; 0.01 uM KAM
  median Log10 fold change: 0.002822
MAST4; 0.1 uM KAM
  median Log10 fold change: -0.135
MAST4; 1 uM KAM
  median Log10 fold change: -0.3289
MAST4; 10 uM KAM
  median Log10 fold change: -0.3337
MAST4; [1]
  IC50: 1260 nM
ULK3; 0.001 uM KAM
  median Log10 fold change: 0.008102
ULK3; 0.01 uM KAM
  median Log10 fold change: 0.009404
ULK3; 0.1 uM KAM
  median Log10 fold change: -0.1871
ULK3; 1 uM KAM
  median Log10 fold change: -0.4491
ULK3; 10 uM KAM
  median Log10 fold change: -0.5442
ULK3; [1]
  IC50: 405 nM
